From patent publication US20100227859A1, “TRICYCLIC COMPOUNDS AS MATRIX METALLOPROTEINASE INHIBITORS” (priority 2007, published 2010)

Biological target: purified human MMP-12 enzyme (Homo sapiens, UniProt P39900)
Test: MMP-12 FRET assay
Assay type: biochemical
Conditions: substrate 20 μM, room temperature
Summary of the method: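 Initial fluorescence rate (325/395 nm) of cleavage of MCA-Pro-Leu-Gly-Leu-Dpa(DNP)-Ala-Arg, 20 μM final, was followed for 30 min at room temperature after a 30 min enzyme–compound preincubation. Buffer: 50 mM HEPES pH 7.4, 100 mM NaCl, 5 mM CaCl2, 0.005% Brij-35, with 10% final DMSO. IC50 came from a Hill-type fit of rate versus inhibitor concentration.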

Chain of purified human MMP-12 enzyme (P39900 106-470): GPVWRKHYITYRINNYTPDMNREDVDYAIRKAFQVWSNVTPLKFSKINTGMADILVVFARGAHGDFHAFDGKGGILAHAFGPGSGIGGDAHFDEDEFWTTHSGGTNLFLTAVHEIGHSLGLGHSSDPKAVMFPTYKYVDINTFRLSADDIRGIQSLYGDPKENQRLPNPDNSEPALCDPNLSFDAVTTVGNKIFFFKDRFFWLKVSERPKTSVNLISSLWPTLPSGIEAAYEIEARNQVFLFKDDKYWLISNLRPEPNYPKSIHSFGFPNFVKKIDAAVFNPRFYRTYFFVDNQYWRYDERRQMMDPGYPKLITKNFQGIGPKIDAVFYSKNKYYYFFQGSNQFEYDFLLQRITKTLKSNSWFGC

IC50 [nM] | SMILES
3 | CC(C)[C@H](NS(=O)(=O)c1ccc2c(c1)oc1ccc(-c3cnn(Cc4ccccc4)c3)cc12)C(=O)O [Compound 22, (S)-2-(8-(1-benzyl-1H-pyrazol-4-yl)dibenzo[b,d]furan-3-sulfonamido)-3-methylbutanoic acid]
< 1.5 | CC(C)[C@H](NS(=O)(=O)c1ccc2c(c1)oc1cc(-c3ccc(Cl)o3)ccc12)C(=O)O [Compound 80, (S)-2-(7-(5-chlorofuran-2-yl)dibenzo[b,d]furan-3-sulfonamido)-3-methylbutanoic acid]
78 | CC(C)[C@@H](NS(=O)(=O)c1ccc2oc3cc(-c4nc5ccc(OC(F)(F)F)cc5s4)ccc3c2c1)C(=O)O [Compound 301, (R)-3-methyl-2-(7-(6-(trifluoromethoxy)benzo[d]thiazol-2-yl)dibenzo[b,d]furan-2-sulfonamido)butanoic acid]
68 | CC(C)[C@H](NS(=O)(=O)c1ccc2c(c1)oc1ccc(-c3ncon3)cc12)C(=O)O [Compound 93, (S)-2-(8-(1,2,4-oxadiazol-3-yl)dibenzo[b,d]furan-3-sulfonamido)-3-methylbutanoic acid]
21 | CC(C)(C)c1nc(-c2ccc3oc4cc(S(=O)(=O)N[C@@H](C(=O)O)c5ccccc5)ccc4c3c2)no1 [Compound 255, (R)-2-(8-(5-tert-butyl-1,2,4-oxadiazol-3-yl)dibenzo[b,d]furan-3-sulfonamido)-2-phenylacetic acid]
12 | CC(C)[C@H](NS(=O)(=O)c1ccc2c(c1)oc1cc(-c3nc4ccc(C(F)(F)F)cc4s3)ccc12)C(=O)O [Compound 236, (S)-3-methyl-2-(7-(6-(trifluoromethyl)benzo[d]thiazol-2-yl)dibenzo[b,d]furan-3-sulfonamido)butanoic acid]
2.5 | Cc1ccc(-c2ccc3c(c2)oc2cc(S(=O)(=O)N[C@H](C(=O)O)C(C)C)ccc23)s1 [Compound 142, (S)-3-methyl-2-(7-(5-methylthiophen-2-yl)dibenzo[b,d]furan-3-sulfonamido)butanoic acid]
3.1 | COc1ccc2nc(-c3ccc4c(c3)oc3ccc(S(=O)(=O)N[C@@H](C(=O)O)C(C)C)cc34)sc2c1 [Compound 296, (R)-2-(7-(6-methoxybenzo[d]thiazol-2-yl)dibenzo[b,d]furan-2-sulfonamido)-3-methylbutanoic acid]
190 | Cc1cscc1-c1ccc2sc3cc(S(=O)(=O)N[C@H](C(=O)O)C(C)C)ccc3c2c1 [Compound 24, (S)-3-methyl-2-(8-(4-methylthiophen-3-yl)dibenzo[b,d]thiophene-3-sulfonamido)butanoic acid]
23 | CC(C)[C@H](NS(=O)(=O)c1ccc2c(c1)oc1ccc(C3=NCCN3)cc12)C(=O)O [Compound 77, (S)-2-(8-(4,5-dihydro-1H-imidazol-2-yl)dibenzo[b,d]furan-3-sulfonamido)-3-methylbutanoic acid]
12 | Cc1cscc1-c1ccc2c(c1)oc1ccc(S(=O)(=O)N[C@@H](C(=O)O)C(C)C)cc12 [Compound 99, (R)-3-methyl-2-(7-(4-methylthiophen-3-yl)dibenzo[b,d]furan-2-sulfonamido)butanoic acid]
97 | Cc1nc(-c2ccccc2)sc1-c1ccc2c(c1)oc1ccc(S(=O)(=O)N[C@@H](C(=O)O)C(C)C)cc12 [Compound 176, (R)-3-methyl-2-(7-(4-methyl-2-phenylthiazol-5-yl)dibenzo[b,d]furan-2-sulfonamido)butanoic acid]
2.2 | CC(C)[C@@H](NS(=O)(=O)c1ccc2oc3cc(-c4ccc(C(F)(F)F)cc4)ccc3c2c1)C(=O)O [Compound 120, (R)-3-methyl-2-(7-(4-(trifluoromethyl)phenyl)dibenzo[b,d]furan-2-sulfonamido)butanoic acid]
19 | CC(C)[C@@H](NS(=O)(=O)c1ccc2oc3cc(-c4cnn(CCN5CCOCC5)c4)ccc3c2c1)C(=O)O [Compound 172, (R)-3-methyl-2-(7-(1-(2-morpholinoethyl)-1H-pyrazol-4-yl)dibenzo[b,d]furan-2-sulfonamido)butanoic acid]
< 1.5 | CC(C)[C@H](NS(=O)(=O)c1ccc2c(c1)oc1ccc(-c3cncnc3)cc12)C(=O)O [Compound 152, (S)-3-methyl-2-(8-(pyrimidin-5-yl)dibenzo[b,d]furan-3-sulfonamido)butanoic acid]
12 | CC(C)C[C@H](NS(=O)(=O)c1ccc2c(c1)oc1ccc(-c3noc(C(C)(C)C)n3)cc12)C(=O)O [Compound 252, (S)-2-(8-(5-tert-butyl-1,2,4-oxadiazol-3-yl)dibenzo[b,d]furan-3-sulfonamido)-4-methylpentanoic acid]
5.2 | CC(C)[C@@H](NS(=O)(=O)c1ccc2oc3cc(-c4nccs4)ccc3c2c1)C(=O)O [Compound 291, (R)-3-methyl-2-(7-(thiazol-2-yl)dibenzo[b,d]furan-2-sulfonamido)butanoic acid]
17 | CC(C)C[C@@H](NS(=O)(=O)c1ccc2c(c1)oc1ccc(-c3noc(C(C)(C)C)n3)cc12)C(=O)O [Compound 253, (R)-2-(8-(5-tert-butyl-1,2,4-oxadiazol-3-yl)dibenzo[b,d]furan-3-sulfonamido)-4-methylpentanoic acid]

Further lines, the compound ahead of its results:

SMILES | IC50 [nM]
CC(C)[C@H](NS(=O)(=O)c1ccc2c(c1)oc1ccc(-c3noc(C4CCOCC4)n3)cc12)C(=O)O [Compound 260, (S)-3-methyl-2-(8-(5-(tetrahydro-2H-pyran-4-yl)-1,2,4-oxadiazol-3-yl)dibenzo[b,d]furan-3-sulfonamido)butanoic acid] | 1.7
CC(C)[C@H](NS(=O)(=O)c1ccc2c(c1)oc1cc(-c3ccco3)ccc12)C(=O)O [Compound 78, (S)-2-(7-(furan-2-yl)dibenzo[b,d]furan-3-sulfonamido)-3-methylbutanoic acid] | < 1.5
CC(C)[C@H](NS(=O)(=O)c1ccc2c(c1)oc1ccc(C(=N)NCc3ccccc3)cc12)C(=O)O [Compound 88, (S)-2-(8-(N-benzylcarbamimidoyl)dibenzo[b,d]furan-3-sulfonamido)-3-methylbutanoic acid] | 47
COC(=O)C#Cc1ccc2oc3cc(S(=O)(=O)N[C@H](C(=O)O)C(C)C)ccc3c2c1 [Compound 6, (S)-2-(8-(3-methoxy-3-oxoprop-1-ynyl)dibenzo[b,d]furan-3-sulfonamido)-3-methylbutanoic acid] | 30.4
CC(C)[C@H](NS(=O)(=O)c1ccc2c(c1)oc1ccc(-c3noc(CC(C)(C)C)n3)cc12)C(=O)O [Compound 261, (S)-3-methyl-2-(8-(5-neopentyl-1,2,4-oxadiazol-3-yl)dibenzo[b,d]furan-3-sulfonamido)butanoic acid] | 5.4
CC(C)[C@H](NS(=O)(=O)c1ccc2c(c1)oc1ccc(-c3cc4ccccc4s3)cc12)C(=O)O [Compound 13, (S)-2-(8-(benzo[b]thiophen-2-yl)dibenzo[b,d]furan-3-sulfonamido)-3-methylbutanoic acid] | 1.7
CC(C)[C@H](NS(=O)(=O)c1ccc2c(c1)oc1ccc(-c3ccc(C(=O)O)s3)cc12)C(=O)O [Compound 112, (S)-5-(7-(N-(1-carboxy-2-methylpropyl)sulfamoyl)dibenzo[b,d]furan-2-yl)thiophene-2-carboxylic acid] | 52
CC(C)[C@@H](NS(=O)(=O)c1ccc2sc3cc(-c4nc5ccccc5s4)ccc3c2c1)C(=O)O [Compound 286, (R)-2-(7-(benzo[d]thiazol-2-yl)dibenzo[b,d]thiophene-2-sulfonamido)-3-methylbutanoic acid] | 130
CC(C)[C@H](NS(=O)(=O)c1ccc2c(c1)oc1ccc(-c3nc4ccccc4s3)cc12)C(=O)O [Compound 151, (S)-2-(8-(benzo[d]thiazol-2-yl)dibenzo[b,d]furan-3-sulfonamido)-3-methylbutanoic acid] | < 1.5
Cc1noc(C)c1-c1ccc2oc3cc(S(=O)(=O)N[C@H](C(=O)O)C(C)C)ccc3c2c1 [Compound 9, (S)-2-(8-(3,5-dimethylisoxazol-4-yl)dibenzo[b,d]furan-3-sulfonamido)-3-methylbutanoic acid] | 10.7
CC(C)[C@H](NS(=O)(=O)c1ccc2c(c1)oc1ccc(-c3ccsc3)cc12)C(=O)O [Compound 28, (S)-3-methyl-2-(8-(thiophen-3-yl)dibenzo[b,d]furan-3-sulfonamido)butanoic acid] | < 1.5
CC(C)[C@@H](NS(=O)(=O)c1ccc2oc3cc(-c4cc5ccccc5s4)ccc3c2c1)C(=O)O [Compound 100, (R)-2-(7-(benzo[b]thiophen-2-yl)dibenzo[b,d]furan-2-sulfonamido)-3-methylbutanoic acid] | 4.9
Cc1nc(-c2ccc3c(c2)oc2ccc(S(=O)(=O)N[C@@H](C(=O)O)C(C)C)cc23)no1 [Compound 139, (R)-3-methyl-2-(7-(5-methyl-1,2,4-oxadiazol-3-yl)dibenzo[b,d]furan-2-sulfonamido)butanoic acid] | 9.2
